Like-named read-outs stand apart in the source and are kept apart here.
Molecular target: HCV NS5b RNA dependent RNA polymerase (Hepatitis C virus genotype 1a, UniProt P27958)
Assay: HCV NS5b RNA dependent RNA polymerase inhibition (scintillation proximity assay)
Assay type: biochemical
Protocol: Compounds of the present invention are evaluated for inhibition of HCV NS5b RNA dependent RNA polymerase activity in assays comprised of a suitable buffer (e.g. 20 mM Tris-HCl pH 7.6), primed or unprimed RNA templates, GTP, ATP, CTP, and UTP, MnCl2 or MgCl2, and reducing agent such as 10 mM dithiothreitol or 2-mercaptoethanol. The assay buffer may contain salts such as ammonium acetate, KCl, or NaCl, and nonionic or zwitterionic detergents such as Tween or CHAPS. The incorporation of nucleotides into the complementary RNA strand may be monitored by the incorporation of radiolabeled NTP (e.g. ^3H labeled GTP). Suitable RNA templates for de novo initiation in the presence of 20–50 μM GTP or ATP are the homopolymers poly rC and poly rU, respectively. Heteropolymer RNA templates with 1–3 cytidine (C) bases or 1–3 uridine (U) bases at the 3′ terminus of the template may also be used for de novo initiation. Primed RNA templates such as poly rC primed with oligo rG or oligo dG, and poly rA primed with oligo rU may also be used to detect polymerase activity. The primers may be any length greater than 10 bases. A biotin residue may be added to the 5′ end of the template or the 5′ end of the primer to capture the template and the newly synthesized, complementary strand on avidin coated spheres. One embodiment of this technology consists of a mixture of NS5b polymerase, a poly rC RNA template primed with 5′ biotinylated oligo rG, 20 mM Tris HCl pH 7.6, 100 mM ammonium acetate, 10 mM dithiothreitol, 2 mM CHAPS, 1 mM MgCl2, and 150–200 nM ^3H labeled GTP. Test compounds (inhibitors) may be incorporated in the reaction mixture with up to 10% DMSO. The reaction is run for various times (1–180 minutes) at 22–37° C., and stopped by the addition of 10–140 mM EDTA. Scintillation Proximity Assay avidin-coated beads (Amersham Pharmacia Biotech) are added to capture the ds RNA product; or the reaction mixtures may be transferred to avidin coated Flash Plates (Perkin Elmer Life Sciences). The incorporation of radiolabeled GTP into the complementary strand is measured in 96, 384, or 1536 well plates in scintillation counters such as the Wallac Microbeta and Packard TopCount.

[1] = concentration for 50% inhibition, class symbols, read-out: NS5B Inhibitory Activity

Chain of HCV NS5b RNA dependent RNA polymerase (P27958 2421-3011): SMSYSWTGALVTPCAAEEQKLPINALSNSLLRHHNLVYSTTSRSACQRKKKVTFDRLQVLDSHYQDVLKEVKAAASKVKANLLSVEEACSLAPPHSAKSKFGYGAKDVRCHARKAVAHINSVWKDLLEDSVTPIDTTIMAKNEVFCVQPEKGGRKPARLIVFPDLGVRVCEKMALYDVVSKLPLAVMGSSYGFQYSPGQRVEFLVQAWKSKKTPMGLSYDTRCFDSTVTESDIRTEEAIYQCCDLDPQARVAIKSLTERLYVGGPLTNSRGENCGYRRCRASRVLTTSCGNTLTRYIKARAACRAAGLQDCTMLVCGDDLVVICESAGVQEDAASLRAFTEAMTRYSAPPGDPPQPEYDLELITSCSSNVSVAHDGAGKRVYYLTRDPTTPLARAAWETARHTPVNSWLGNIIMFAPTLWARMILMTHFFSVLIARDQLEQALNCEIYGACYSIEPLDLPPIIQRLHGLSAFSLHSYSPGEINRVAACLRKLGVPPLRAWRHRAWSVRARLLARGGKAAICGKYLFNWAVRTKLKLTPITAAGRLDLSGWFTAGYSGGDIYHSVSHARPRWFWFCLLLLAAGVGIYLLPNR

Row | IC50 [1] [µM] | SMILES | IC50 [µM]
1 | > 30 | CCS(=O)(=O)c1ccc(-c2ccc(/C=C(\NC(=O)c3ccccc3)C(=O)O)o2)cc1 [Compound 7] | –
2 | > 30 | O=C(O)/C(=C/c1cccc(-c2cccnc2)c1)NC(=O)c1ccccc1 [Compound 11] | –
3 | 11 to 30 | O=C(O)/C(=C/c1ccc(Nc2ccccc2Cl)cc1)NC(=O)c1ccccc1 [Compound 6] | –
4 | 11 to 30 | Cc1ccc(COc2ccc(/C=C(\NC(=O)c3ccccc3)C(=O)O)cc2)cc1 [Compound 3] | –
5 | < 10 | O=C(O)/C(=C/c1cccc(Oc2ccccc2Cl)c1)NC(=O)c1ccccc1 [Compound 1] | –
6 | < 10 | O=C(O)/C(=C/c1ccc(Oc2ccccc2Br)cc1)NC(=O)c1ccccc1 [Compound 13] | –
7 | 11 to 30 | O=C(O)/C(=C/c1ccc(-c2cc3ccccc3s2)o1)NC(=O)c1ccccc1 [Compound 5] | –
8 | < 10 | O=C(O)/C(=C/c1csc(-c2ccccc2Cl)n1)NC(=O)c1ccccc1 [Compound 9] | –
9 | – | Cc1ccccc1-c1ccc(/C=C(\NC(=O)c2ccccc2)C(=O)O)o1 [Compound 2] | < 10
10 | < 10 | O=C(O)/C(=C/c1ncc(-c2ccccc2)o1)NC(=O)c1ccccc1 [Compound 10] | –
11 | < 10 | O=C(O)/C(=C/c1ccc(F)c(-c2ccccc2Cl)c1)NC(=O)c1ccccc1 [Compound 8] | –
12 | < 10 | O=C(O)/C(=C/c1ccc(-c2ccc3c(c2)OCO3)o1)NC(=O)c1ccccc1 [Compound 4] | –
13 | > 30 | O=C(O)/C(=C/c1cnc(-c2ccccc2Cl)[nH]1)NC(=O)c1ccccc1 [Compound 12] | –

Reference: patent US7041690B2, “Inhibitors of HCV NS5B polymerase” (Pharmacia & Upjohn Company, LLC, priority 2002, dated 2006)
